# In the oligonucleotide strings, read from the 5' end, every base follows the letter of its sugar. An asterisk marks phosphorothioate; unmarked linkages are phosphodiester. Other units and linkages are bracketed, terminal groups are in braces. A string of capitals states the bases alone. e = 2'-O-(2-methoxyethyl) (MOE); [5mC] = 5-methylcytosine
# Tests used:
# U87 cells = assay: cell viability assay (CellTiter-Glo), U87 cells; assay type: cell-based; details: RNAiMAX transfection, 72 hours
# Procedure: (§1) For the cell viability assay, approximately 8,000 cells were plated into each well of a 96-well plate. The following day, cells were transfected with anti-miR-10b compound at doses of 2, 4, 8, 16, 31, 63, 125, 250, and 500 nM, using RNAiMAX™ as the transfection reagent. After 72 hours, cell viability was determined using the CellTiter-Glo® Luminescent Cell Viability Assay. An IC50 was calculated for each compound. The assay was performed using both LN229, U87, MCF7, and HCN2 cells.
# HCN2 cells = assay: cell viability assay (CellTiter-Glo), HCN2 cells; assay type: cell-based; details: RNAiMAX transfection, 72 hours
# Procedure: as §1
# miR-10b [1] = assay: luciferase reporter assay for miR-10b in stable Hela cell line; assay type: cell-based; details: Hela reporter cells transfected with miR-10b; for Luciferase (avg fold change) 1 nM: 1 nM anti-miR-10b compound; for Luciferase (avg fold change) 10 nM: 10 nM anti-miR-10b compound; for Luciferase (avg fold change) 100 nM: 100 nM anti-miR-10b compound
# Procedure: In vitro potency was evaluated using a luciferase reporter assay. A luciferase reporter plasmid for miR-10b was designed, with a fully complementary miR-10b binding site in the 3′-UTR of the luciferase gene. A stable Hela cell line expressing this luciferase construct was generated. Cells were transfected to introduce miR-10b, which represses the expression of luciferase from the reporter construct. […] Cells were treated with anti-miR-10b compound at concentrations of 1 nM, 10 nM, and 100 nM. […] As shorter compounds, such as 9-mers, are typically not maximally active in the same assay conditions used for longer compounds, shorter compounds were selected based on maximum inhibition relative to appropriate control compounds. In this way, compounds that are diverse in both length and chemical composition were included in further testing.
# LN229 cells [2] = assay: cell viability assay (CellTiter-Glo), LN229 cells; assay type: cell-based, human; details: RNAiMAX transfection, 72 hours
# Procedure: as §1
# MCF7 cells = assay: cell viability assay (CellTiter-Glo), MCF7 cells; assay type: cell-based; details: RNAiMAX transfection, 72 hours
# Procedure: as §1
# LN229 cells [3] = assay: LN229 Orthotopic Model, summary of in vivo studies (Table 7); set-up: species or system nude mice; details: for survival benefit: Intratumoral anti-miR-10b alone, cell reads 'No survival benefit' over three lines
# Procedure: (§2) Human gliomablastoma-derived cells growing in culture are trypsinzed, counted, and resuspended PBS. The cells express a fluorescent marker and luciferase insertion that enables monitoring of tumor growth and size via an in vivo imaging system. Approximately 5×10^5 cells, in a volume of 5 ul, are injected into the brain of nude mice. Following intracranial tumor implantation, tumor burden is measured using the IVIS Spectrum In Vivo Imaging System (PerkinElmer), and mice are randomized into treatment groups. Intratumoral (e.g., 0.1-500 ug/tumor), subcutaneous (e.g., 100 mg/kg) or intravenous (e.g., 80 mg/kg) dosing of anti-miR-10b compound begins post-implantation. Tumor burden is measured weekly using the imaging system. Final tumor size and weight are measured at the end of the study.
# Three candidate therapeutic agents, RG5579, RG5461, and RG5658 were tested in the subcutaneous and orthotopic glioma models. […] The studies were designed to evaluate subcutaneous administration vs. intratumoral administration in subcutaneous in orthotopic models; efficacy of the anti-miR-10b compound alone and in combination with TMZ; and efficacy of a single injection of anti-miR-10b compound vs multiple injections. The research tool compound RG384124 was also tested.
# The results of the in vivo studies are summarized in Table 7 and illustrate the substantial improvement of overall survival following treatment with both anti-miR-10b compound and TMZ. RG5461 and RG5658 improved overall median survival in combination with TMZ treatment.
# LN229 cells [4] = assay: orthotopic LN229 glioblastoma model, RG5461 and RG5658 alone or with TMZ, survival; assay type: in vivo; details: single intratumoral dose Day 21 (20 ug RG5658, 50 ug RG5461), TMZ daily Days 35-41, nude mice
# Procedure: RG5658 and RG5461 were tested in an orthotopic model of GBM established with LN229 cells. Treatments comprised anti-miR-10b compound alone or in combination with TMZ.
# Further testing was performed to evaluate the effects of RG5658 and RG5461 treatment in combination with TMZ. Human gliomablastoma-derived LN229 cells growing in culture were trypsinzed, counted, and resuspended PBS. The cells express a fluorescent marker that enables monitoring of tumor growth and size during treatment. Approximately 5×10^5 cells, in a volume of 5 ul, were injected into the brain of nude mice on Day 0. Mice were randomized into the following treatment groups, with 8 mice per group: (1) PBS; (2) RG5461; (3) RG5658; (4) RG5461+TMZ; (5) RG5658+TMZ; and (6) PBS+TMZ. On Day 21, a single dose of anti-miR-10b compound was administered intratumorally at a dose of 20 ug for RG5658 or 50 ug for RG5461. TMZ was administered daily on each of Days 35-41. Survival was monitored, and overall median survival was determined.
# LN229 cells [5] = assay: orthotopic LN229 glioblastoma model, RG5579 alone or with TMZ, survival; assay type: in vivo; details: intratumoral 40 ug RG5579 Day 21, TMZ daily Days 35-41, nude mice
# Procedure: RG5579 was tested in an orthotopic model of GBM established with LN229 cells.
# Human gliomablastoma-derived LN229 cells growing in culture were trypsinized, counted, and resuspended PBS. The cells express a fluorescent marker that enables monitoring of tumor growth and size during treatment. Approximately 5×10^5 cells, in a volume of 5 ul, were injected into the brain of nude mice on Day 0. Mice were randomized into the following treatment groups, with 8 mice per group: (1) PBS; (2) RG5579; (3) PBS+TMZ; and (4) RG5579+TMZ. On Day 21, mice were given an intratumoral injection of either PBS or 40 ug of RG5579. On Days 35-41, TMZ was administered daily. Survival was monitored, and overall median survival was determined.
# miR-10b [6] = assay: PD signature (mRNA of direct miR-10b target genes) in LN229 cells; assay type: cell-based, human
# Procedure: To evaluate the on-target pharmacodynamic effects of treatment with anti-miR-10b, 18 genes that are direct targets of miR-10b were identified by next generation sequencing, and the expression of each of these genes following anti-miR-10b treatment was measured. The 18 genes were: ATXN2, ATXN7, BCL6, BDNF, CRLF3, DAZAP1, DVL3, FXR2, GATAD2A, GCLM, GTF2H1, INO80D, MIEF1, NCOA6, NFE2L1, PDE4A, SMAD2, and TET2.
# LN229 cells were treated with a concentration of RG5579 ranging from 2 to 500 nM. After 24 hours, RNA was isolated and the mRNA levels of the 18 genes targeted were measured and averaged to provide a pharmacodynamic signature score (PD Signature Score), represented as Log 2 fold-change (Log 2FC) relative to mock-transfection.
# Similar studies were conducted with RG5461 and RG5658, using a PD signature of 10 genes (non-overlapping with the 18-gene PD signature above).
# [7] = tested on: Human gliomablastoma-derived cells; assay: initial testing in subcutaneous and orthotopic glioma models, single intratumoral dose; assay type: in vivo, nude mice; details: single dose administered intratumorally
# Procedure: Human gliomablastoma-derived cells growing in culture are trypsinzed, counted, and resuspended in a 1:1 mixture of media:growth factor reduced Matrigel. Approximately 10^6 cells, in a volume of 100 ul, are injected subcutaneously into the flank of nude mice. Ten days following subcutaneous tumor implantation, tumor size is measured using calipers, and mice are randomized into treatment groups. Intratumoral (e.g., 5 ug/30 mm^3 tumor), subcutaneous (e.g., 100 mg/kg) or intravenous (e.g., 80 mg/kg) dosing of anti-miR-10b compound begins post-implantation. Tumor size is measured three to five days per week. Final tumor size and weight are measured at the end of the study.
# as §2, with “Intratumoral (e.g., 0.1-500 ug/tumor), subcutaneous (e.g., 100 mg/kg) or intravenous (e.g., 80 mg/kg) dosing of anti-miR-10b compound begins post-implantation.” left out
Compound,IC50 (U87 cells),IC50 (HCN2 cells),Luciferase (avg fold change) 1 nM (miR-10b [1]),Luciferase (avg fold change) 10 nM (miR-10b [1]),Luciferase (avg fold change) 100 nM (miR-10b [1]),IC50 (LN229 cells [2]),IC50 (MCF7 cells),survival benefit (LN229 cells [3]),% increase (relative to PBS) of median survival (LN229 cells [4]),Median Survival (LN229 cells [4]),Median Overall Survival % increase (relative to PBS) (LN229 cells [5]),Median Overall Survival Days (LN229 cells [5]),10-gene PD signature (miR-10b [6]),median survival increase (LN229 cells [3]; Intratumoral anti-miR-10b + TMZ),overall survival [7],tumor growth [7]
"5′-CACAAATTCGGTTCTACAGGGTA-3′ (antisense e[5mC]*eA*e[5mC]*eA*eA*eA*eT*eT*e[5mC]*eG*eG*eT*eT*e[5mC]*eT*eA*e[5mC]*eA*eG*eG*eG*eT*eA) [RG384124, research tool compound; each nucleoside 2′-O-methoxyethyl, each C 5-methylcytosine, each linkage phosphorothioate]",31.3 nM,44.4 nM,2.8 fold change,29.5 fold change,55.6 fold change,43 nM,80.5 nM,No,–,–,–,–,–,–,–,–
"Cn1nnc2c(C(N)=O)ncn2c1=O [TMZ, temozolomide]",–,–,–,–,–,–,–,–,22%,67.5 days,27%,61.5 days,–,–,–,–
"UKAKCMAFGFGFGMUKAK (CAAATUCGGTTCTACAGGGTA; LNA/2'-F/2'-OMe modifications, chemistry not fully specified) [RG5658, anti-miR-10b modified oligonucleotide, 9 linked nucleosides]",45.6 nM,–,1.8 fold change,3.7 fold change,4.7 fold change,90.1 nM,929 nM,No,–,56 days,–,–,dose-dependent de-repression of a 10-gene PD signature,71%,did not significantly improve overall survival,consistently delayed tumor growth
